Here are results for three molecules from patent US20230293514A1, “INJECTABLE DEPOT FORMULATION COMPRISING CARIPRAZINE FREE BASE PARTICLES” (Anxo Pharmaceutical Co., Ltd., priority 2022, published 2023).

Structures are written as SMILES. In brackets after ≈: the same amount, converted by molar mass. Where a name gives a salt, the structure may show the parent alone.

As usually defined, the solubility is the dissolved amount per volume that the medium holds. Low readings indicate a poorly soluble substance, high ones a readily soluble substance.

The nature of one data set: physchem. The settings on record: water, thermodynamic from solid.
The conditions of data set [1]: plasma vs pH 7.6 buffer simulating muscular tissue; cited from earlier work.

As for `CN(C)C(=O)NC1CCC(CCN2CCN(c3cccc(Cl)c3Cl)CC2)CC1` (stereo in doubt) [cariprazine hydrochloride salt, trans-N-{4-[2-[4-(2,3-dichlorophenyl)piperazine-1-yl]ethyl]cyclohexyl}-N′, N′-dimethylurea hydrochloride], the solubility in the data set “physchem” was over 5000 µg/mL.
Take `Cc1cc2c(s1)Nc1ccccc1N=C2N1CCN(C)CC1.O.O=C(O)c1cc2ccccc2c(Cc2c(O)c(C(=O)O)cc3ccccc23)c1O` [olanzapine pamoate]: the “solubilization enhancement in plasma compared to pH 7.6 buffer” value in data set [1] is on record as 18 fold.
In turn, `CN(C)C(=O)N[C@H]1CC[C@H](CCN2CCN(c3cccc(Cl)c3Cl)CC2)CC1` [cariprazine free base, cariprazine] gave a solubility in “physchem” of 6 µg/mL (≈ 14 µM).
